Earlier results, collected in patent publication US20220372506A1, “CYP81E GENES […] TOLERANCE” (Colorado State University Research Foundation, priority 2020, published 2022).
Entries after “also recorded” stand apart in the source; their conditions may differ.

What was measured:
[1] = tested on: A. tuberculatus NEB population
[2] = tested on: A. tuberculatus CHR population; conditions: CHR population compared to WUS; for level of resistance (dose response): Evans et al. 2019
[3] = tested on: A. tuberculatus NEB population; conditions: malathion pre-treatment before 2,4-D, Figueiredo et al. 2018

## O=C(O)COc1ccc(Cl)cc1Cl [2,4-D, 2,4-dichlorophenoxyacetic acid]
[1]; NEB population compared to the Nebraska 2,4-D sensitive population, Bernards et al. 2012
  level of 2,4-D resistance: 10 fold
[2]
  level of resistance (dose response): 9 fold

## CCOC(=O)CC(SP(=S)(OC)OC)C(=O)OCC (stereo not drawn) [malathion]
[3]
  effect of pre-treatment on 2,4-D resistance phenotype: reverted to sensitivity; also recorded: reversed the resistance phenotype

## CS(=O)(=O)c1ccc(C(=O)C2C(=O)CCCC2=O)c([N+](=O)[O-])c1 [mesotrione]
[2]
  level of resistance (dose response): ~15 fold

## CS(=O)(=O)c1ccc(C(=O)C2C(=O)CCCC2=O)c(Cl)c1COCC(F)(F)F [tembotrione]
[1]; NEB population compared to WUS, Murphy and Tranel, 2019
  resistance to tembotrione: 15 fold
[2]; Murphy and Tranel, 2019
  resistance to tembotrione: 43 fold
